Data from patent US6355799B1, “Substituted benzene compounds, process for their preparation, and herbicidal and defoliant compositions containing them” (ISK Americas Incorporated, priority 1997, dated 2002).

Tests used:
Assay type in all cases: in vivo
[1] = test system: upland rice (Oryza sp., var. Tebonnet, RICE); assay: Pre-emerge test, crop safety; details: rating scale 0-100, 14 days after application
How it was run: (§1)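 Visual ratings on a 0-100 scale (0 no damage, 100 all plants dead) were taken at 14 days after treatment. Rates of 15-1000 g ai/ha in acetone, 187 l/ha, were sprayed onto soil one day after planting (pre-emerge) or onto 2-3 leaf plants with 0.25% v/v surfactant (post-emerge).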

[2] = test system: field corn (Zea mays L., var. Dekalb 535, CORN); assay: Pre-emerge test, crop safety; details: rating scale 0-100, 14 days after application
How it was run: as §1

[3] = test system: barnyardgrass (Echinochloa crus-galli, ECHCG); assay: Pre-emerge test, greenhouse herbicide activity screening; details: rating scale 0-100, 14 days after application
How it was run: (§2)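 Compounds in acetone were track-sprayed at 15-1000 g ai/ha (187 l/ha) on sandy loam pots: pre-emerge one day after seeding, post-emerge at 2-3 leaf stage with 0.25% v/v non-ionic surfactant. Phytotoxicity was rated 14 days later on a 0 (no damage) to 100 (complete death) scale.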

[4] = test system: sicklepod (Cassia obtusifolia, CASOB); assay: as above; details: rating scale 0-100, 14 days after application
How it was run: as §2

[5] = test system: johnsongrass (Sorghum halepense, SORHA); assay: as above; details: rating scale 0-100, 14 days after application
How it was run: as §2

[6] = test system: green foxtail (Setaria viridis, SETVI); assay: as above; details: rating scale 0-100, 14 days after application
How it was run: as §2

[7] = test system: velvetleaf (Abutilon theophrasti, ABUTH); assay: as above; details: rating scale 0-100, 14 days after application
How it was run: as §2

[8] = test system: ivyleaf morningglory (Ipomoea hederacea, IPOHE); assay: as above; details: rating scale 0-100, 14 days after application
How it was run: as §2

[9] = test system: lambsquarters (Chenopodium album, CHEAL); assay: as above; details: rating scale 0-100, 14 days after application
How it was run: as §2

[10] = test system: common ragweed (Ambrosia artemisizfolia L., AMBEL); assay: as above; details: rating scale 0-100, 14 days after application
How it was run: as §2

[11] = test system: large crabgrass (Digitaria sanguinalis, DIGSA); assay: as above; details: rating scale 0-100, 14 days after application
How it was run: as §2

[12] = test system: redroot pigweed (Amaranthus retroflexus, AMARE); assay: as above; details: rating scale 0-100, 14 days after application
How it was run: as §2

[13] = test system: upland rice (Oryza sp., var. Tebonnet, RICE); assay: Post-emerge test, crop safety; details: rating scale 0-100 (0 no damage, 100 complete death), 14 days after application
How it was run: as §2

[14] = test system: field corn (Zea mays L., var. Dekalb 535, CORN); assay: Post-emerge test, crop safety; details: rating scale 0-100 (0 no damage, 100 complete death), 14 days after application
How it was run: as §2

[15] = test system: barnyardgrass (Echinochloa crus-galli, ECHCG); assay: Post-emerge test, greenhouse herbicide activity screening; details: rating scale 0-100 (0 no damage, 100 complete death), 14 days after application
How it was run: (§3)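 Compounds in acetone were track-sprayed at 187 l/ha, 15–1000 g ai/ha, onto sandy loam pots. Pre-emerge seeds were sown one day before spraying, with surface watering afterwards. Post-emerge plants were at the 2–3 leaf stage and sprayed with 0.25% v/v non-ionic surfactant. Injury was rated 0–100 at 14 days.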

[16] = test system: sicklepod (Cassia obtusifolia, CASOB); assay: as above; details: rating scale 0-100 (0 no damage, 100 complete death), 14 days after application
How it was run: as §3

[17] = test system: green foxtail (Setaria viridis, SETVI); assay: as above; details: rating scale 0-100 (0 no damage, 100 complete death), 14 days after application
How it was run: as §3

[18] = test system: velvetleaf (Abutilon theophrasti, ABUTH); assay: as above; details: rating scale 0-100 (0 no damage, 100 complete death), 14 days after application
How it was run: as §3

[19] = test system: ivyleaf morningglory (Ipomoea hederacea, IPOHE); assay: as above; details: rating scale 0-100 (0 no damage, 100 complete death), 14 days after application
How it was run: as §3

[20] = test system: lambsquarters (Chenopodium album, CHEAL); assay: as above; details: rating scale 0-100 (0 no damage, 100 complete death), 14 days after application
How it was run: as §3

[21] = test system: common ragweed (Ambrosia artemisizfolia L., AMBEL); assay: as above; details: rating scale 0-100 (0 no damage, 100 complete death), 14 days after application
How it was run: as §3

[22] = test system: redroot pigweed (Amaranthus retroflexus, AMARE); assay: as above; details: rating scale 0-100 (0 no damage, 100 complete death), 14 days after application
How it was run: as §3

[23] = test system: large crabgrass (Digitaria sanguinalis, DIGSA); assay: as above; details: rating scale 0-100 (0 no damage, 100 complete death), 14 days after application
How it was run: as §3

CCCCOC(=O)C(Cl)Cc1c(OC)c(Cl)cc(F)c1-n1c(=O)cc(C(F)(F)F)n(C)c1=O (single isomer, unassigned) [14-8] was tested, and the “Pre-emerge phytotoxicity rating, crop damage RICE” value ([1]; 63 g ai/ha) was 0, the “Pre-emerge phytotoxicity rating, crop damage RICE” value ([1]; 250 g ai/ha) was 0 and the “Pre-emerge phytotoxicity rating, crop damage CORN” value ([2]; 63 g ai/ha) was 0. The “Pre-emerge phytotoxicity rating, crop damage CORN” value ([2]; 250 g ai/ha) was 0, the “Pre-emerge herbicidal activity, phytotoxicity rating ECHCG” value ([3]; 63 g ai/ha) was 0 and the “Pre-emerge herbicidal activity, phytotoxicity rating ECHCG” value ([3]; 250 g ai/ha) was 20. For the same compound, the “Pre-emerge herbicidal activity, phytotoxicity rating CASOB” value ([4]; 63 g ai/ha) was 0, the “Pre-emerge herbicidal activity, phytotoxicity rating CASOB” value ([4]; 250 g ai/ha) was 0 and the “Pre-emerge herbicidal activity, phytotoxicity rating SORHA” value ([5]; 63 g ai/ha) was 0. The “Pre-emerge herbicidal activity, phytotoxicity rating SORHA” value ([5]; 250 g ai/ha) was 0, the “Pre-emerge herbicidal activity, phytotoxicity rating SETVI” value ([6]; 63 g ai/ha) was 0 and the “Pre-emerge herbicidal activity, phytotoxicity rating SETVI” value ([6]; 250 g ai/ha) was 0. The “Pre-emerge herbicidal activity, phytotoxicity rating ABUTH” value ([7]; 63 g ai/ha) was 0, the “Pre-emerge herbicidal activity, phytotoxicity rating ABUTH” value ([7]; 250 g ai/ha) was 40 and the “Pre-emerge herbicidal activity, phytotoxicity rating IPOHE” value ([8]; 63 g ai/ha) was 0. The “Pre-emerge herbicidal activity, phytotoxicity rating IPOHE” value ([8]; 250 g ai/ha) was 0, the “Pre-emerge herbicidal activity, phytotoxicity rating CHEAL” value ([9]; 63 g ai/ha) was 70 and the “Pre-emerge herbicidal activity, phytotoxicity rating CHEAL” value ([9]; 250 g ai/ha) was 95. The “Pre-emerge herbicidal activity, phytotoxicity rating AMBEL” value ([10]; 63 g ai/ha) was 0, the “Pre-emerge herbicidal activity, phytotoxicity rating AMBEL” value ([10]; 250 g ai/ha) was 40 and the “Pre-emerge herbicidal activity, phytotoxicity rating DIGSA” value ([11]; 63 g ai/ha) was 40. For the same compound, the “Pre-emerge herbicidal activity, phytotoxicity rating DIGSA” value ([11]; 250 g ai/ha) was 100, the “Pre-emerge herbicidal activity, phytotoxicity rating AMARE” value ([12]; 63 g ai/ha) was 100 and the “Pre-emerge herbicidal activity, phytotoxicity rating AMARE” value ([12]; 250 g ai/ha) was 99. For the same compound, the “Post-emerge phytotoxicity rating RICE (crop damage)” value ([13]; Rate 63 g ai/ha) was 5, the “Post-emerge phytotoxicity rating RICE (crop damage)” value ([13]; Rate 250 g ai/ha) was 30 and the “Post-emerge phytotoxicity rating CORN (crop damage)” value ([14]; Rate 63 g ai/ha) was 40. The “Post-emerge phytotoxicity rating CORN (crop damage)” value ([14]; Rate 250 g ai/ha) was 80, the “Post-emerge Herbicidal Activity, phytotoxicity rating ECHCG” value ([15]; Rate 63 g ai/ha) was 95 and the “Post-emerge Herbicidal Activity, phytotoxicity rating ECHCG” value ([15]; Rate 250 g ai/ha) was 99. The “Post-emerge Herbicidal Activity, phytotoxicity rating CASOB” value ([16]; Rate 63 g ai/ha) was 30, the “Post-emerge Herbicidal Activity, phytotoxicity rating CASOB” value ([16]; Rate 250 g ai/ha) was 80 and the “Post-emerge Herbicidal Activity, phytotoxicity rating SETVI” value ([17]; Rate 63 g ai/ha) was 10. The “Post-emerge Herbicidal Activity, phytotoxicity rating SETVI” value ([17]; Rate 250 g ai/ha) was 40, the “Post-emerge Herbicidal Activity, phytotoxicity rating ABUTH” value ([18]; Rate 63 g ai/ha) was 60 and the “Post-emerge Herbicidal Activity, phytotoxicity rating ABUTH” value ([18]; Rate 250 g ai/ha) was 100. For the same compound, the “Post-emerge Herbicidal Activity, phytotoxicity rating IPOHE” value ([19]; Rate 63 g ai/ha) was 30, the “Post-emerge Herbicidal Activity, phytotoxicity rating IPOHE” value ([19]; Rate 250 g ai/ha) was 95 and the “Post-emerge Herbicidal Activity, phytotoxicity rating CHEAL” value ([20]; Rate 63 g ai/ha) was 70. For the same compound, the “Post-emerge Herbicidal Activity, phytotoxicity rating CHEAL” value ([20]; Rate 250 g ai/ha) was 99, the “Post-emerge Herbicidal Activity, phytotoxicity rating AMBEL” value ([21]; Rate 63 g ai/ha) was 10 and the “Post-emerge Herbicidal Activity, phytotoxicity rating AMBEL” value ([21]; Rate 250 g ai/ha) was 50. For the same compound, the “Post-emerge Herbicidal Activity, phytotoxicity rating AMARE” value ([22]; Rate 63 g ai/ha) was 90, the “Post-emerge Herbicidal Activity, phytotoxicity rating AMARE” value ([22]; Rate 250 g ai/ha) was 100 and the “Post-emerge Herbicidal Activity, phytotoxicity rating DIGSA” value ([23]; Rate 63 g ai/ha) was 40. For the same compound, the “Post-emerge Herbicidal Activity, phytotoxicity rating DIGSA” value ([23]; Rate 250 g ai/ha) was 85.
